Measurements reported in US20040235830A1, “Substituted cyclohexane derivatives and the use thereof in medicaments for treating cardiovascular diseases” (priority 2000, published 2004).

These molecules were tested on Langendorff rat heart (assay: Langendorff rat heart (isolated perfused heart, coronary perfusion pressure)). Settings: constant-volume (10 ml/min) coronary perfusion, concentration from which perfusion pressure decreases (= relaxation of the coronary arteries), read-out: Decrease in the perfusion pressure from:.
Experimental: The heart is rapidly removed after opening the chest cavity of anesthetized rats and is introduced into a conventional Langendorff apparatus. The coronary arteries are subjected to constant-volume (10 ml/min) perfusion, and the perfusion pressure arising thereby is recorded via an appropriate pressure transducer. A decrease in the perfusion pressure in this arrangement corresponds to a relaxation of the coronary arteries. At the same time, the pressure developed by the heart during each contraction is measured via a balloon introduced into the left ventricle, and a further pressure transducer. The rate at which the isolated heart beats is found by calculation from the number of contractions per unit time.

`C[C@H](NC(=O)[C@H]1CCCCC1c1ccc(C(=O)N(C)C(C)(C)c2ccccc2)cc1)c1ccccc1` (stereo in doubt) [Example 177, N-Methyl-N-(1-methyl-1-phenylethyl)-4-[(1R,2S)-2-({[(1S)-1-phenylethyl]-amino}carbonyl)cyclohexyl]benzamide] and `C[C@H](NC(=O)[C@H]1CCCC[C@@H]1c1ccc(CN(C)C(C)(C)c2ccccc2)cc1)c1ccccc1` [Example 123, (1S,2S)-2-(4-{[Dimethylbenzyl(methyl)amino]methyl}phenyl)-N-[(1S)-1-phenylethyl]cyclohexanecarboxamide] are the same in minimal effective concentration: 0.01 µM for the first, 0.01 µM for the second.

`O=C(NC(CO)c1ccccc1)C1CCCCC1c1ccc(CN(C(=O)Oc2ccccc2)C2CC2)cc1` (stereo not drawn) [Example 40] and `COCC(NC(=O)[C@H]1CCCC[C@@H]1c1ccc(CN(C(=O)Oc2ccccc2)C2CC2)cc1)c1ccccc1` (stereo partly drawn) [Example 168] are the same in minimal effective concentration: 0.01 µM for the first, 0.01 µM for the second.

Compared with `CN(Cc1ccc([C@H]2CCCC[C@@H]2C(=O)N[C@@H](CO)c2ccccc2)cc1)c1ccccc1` [Example 21], `O=C(N[C@@H](CO)c1ccccc1)[C@H]1CCCC[C@@H]1c1ccc(CN(C(=O)N2CCCCC2)c2ccccc2)cc1` [Example 1, N-[4-((1S,2S)-2-{[((1R)-2-Hydroxy-1-phenylethyl)amino]carbonyl}cyclohexyl)-benzyl]-N-phenyl-1-piperidinecarboxamide] is 1000-fold higher in minimal effective concentration: 0.001 µM for the first, 1 µM for the second.

Compared with `COCCN(Cc1ccc(C2CCCCC2C(=O)NC(CO)c2ccccc2)cc1)C(=O)Nc1ccccc1` (stereo not drawn) [Example 80], `C[C@H](NC(=O)[C@H]1CCCC[C@@H]1c1ccc(COc2ccccc2)cc1)c1ccccc1` [Example 210, (1S,2S)-2-(4-[Phenoxymethyl]phenyl)-N-[(1S)-1-phenylethyl]cyclohexane-carboxamide] is 1000-fold lower in minimal effective concentration: 1 µM for the first, 0.001 µM for the second.

In the case of `C[C@H](NC(=O)[C@H]1CCCC[C@@H]1c1ccc(CN(C(=O)N2CCCC2)c2ccccc2)cc1)c1ccccc1` [Example 7], the minimal effective concentration is reported as 0.1 µM.
